In general, IC50 refers to the concentration at which inhibition is half-maximal.

Calls of active or inactive are those of the source. No rule for the calls is given here. Where only a bound is given, the exact number is not on record here.

The record followed here is PubChem BioAssay AID1159562 (GlaxoSmithKline (GSK), 2015).

This experiment has as its system Trypanosoma brucei growth inhibition, luminescence. Put plainly: Trypanosoma brucei growth inhibition, luminescence (AID 1159562).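 Also: parasites grew with compound for 24 h before the luminescence read.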
With `Nc1cc(-c2ccc3ncnc(N4CCOCC4)c3c2)cnc1N`, the IC50 was 160 nM.
As for `Cc1cc2ncn(-c3ccc([N+](=O)[O-])cc3C#N)c2cc1C`, the IC50 was > 40000 nM (inactive).
Regarding `Cc1cc(N(C)C)nc2ccc(Cc3cnc(N)nc3N)cc12`, the IC50 is 5000 nM.
As for `COc1ccc(S(=O)(=O)Nc2ccc(CN3CCN(C(=O)c4cccc(C#N)c4)CC3)cc2)cc1`, the IC50 is 630 nM.
The figure for `Cc1ccc(S(=O)(=O)Cn2nnnc2C(c2cccnc2)N2CCN(c3ccccc3)CC2)cc1` (stereo not drawn) is > 40000 nM (inactive).
As to `CC1CCCN(S(=O)(=O)c2ccc(C(=O)Nc3nc(-c4ccccn4)cs3)cc2)C1` (stereo not drawn), the IC50 was 400 nM.
`Cc1cc(C)n(-c2nc(NC(C)(C)C)nc(N3CCOCC3)n2)n1`: the IC50 is 4000 nM.
The figure for `N#Cc1cccc(Cc2cc(Nc3cc(C4CC4)[nH]n3)nc(N3CC[C@H]3C(N)=O)n2)c1` is 63 nM.
In the case of `COc1ccc2nc(N(Cc3cccnc3)C(=O)C3CCC3)sc2c1`, the IC50 is 40000 nM.
For `NC(=O)c1ncccc1Nc1nc(NC2CCC(O)CC2)ncc1Br` (stereo not drawn), the IC50 is 630 nM.
To `COc1ccc(S(=O)(=O)Nc2ccccc2OC)cc1NC(=O)CCCc1c[nH]c2ccccc12` belongs 32000 nM; to `NC(=O)c1cc(NC(=O)c2ccccc2COc2ccccc2)ccc1Cl`, > 40000 nM (inactive).
On to `O=C(NCCc1ccccn1)C(c1cn[nH]c1)N1CCN(c2ccc(Cl)c(Cl)c2)CC1` (stereo not drawn), for which the IC50 is > 40000 nM (inactive).
`O=C(Nc1ccc(C(F)(F)F)cc1)Nc1cccc([N+](=O)[O-])c1`: the IC50 is 2000 nM.
With `CC(=O)Nc1cccc(Nc2ncnc3nc[nH]c23)c1`, the IC50 was 400 nM.
The figure for `O=C(CSc1ccc(F)cc1)N[C@@H](Cc1cnc[nH]1)C(=O)NCCc1ccccc1` is > 40000 nM (inactive); for `Cc1nnnn1-c1cccc(C(=O)N2CCC[C@@]3(C)c4ncncc4CCC23)c1` (stereo partly drawn) it is > 40000 nM (inactive); for `CN(Cc1ccc(F)cc1)c1ccc(OCC(=O)N2CCCCC2c2cccnc2)nn1` (stereo not drawn) it is > 40000 nM (inactive).
For `O=C(Nc1n[nH]c(-c2ccccn2)n1)C1CC1c1ccccc1` (stereo not drawn), the IC50 is 20000 nM.
For `N#Cc1cccc(CN2CCC(c3nc(-c4ccc(C(F)(F)F)nc4)no3)CC2)c1`, the IC50 is > 40000 nM (inactive).
The figure for `COc1cnc2ccc(=O)n(CCN3CCC(NC/C=C/c4cc(F)ccc4F)CC3)c2c1` is 790 nM; for `CN(C)CCN(C)Cc1ccc(Cl)cc1NS(=O)(=O)c1ccc(Cl)c(Cl)c1` it is 4000 nM.
For `O=C(NCc1ccc(-n2cccc2)cc1)c1nc(Cn2ccc([N+](=O)[O-])n2)no1`, the IC50 was > 40000 nM (inactive).
For the compound `CNC(=O)C1Cc2ccccc2N1C(=O)Cc1ccc(OC)cc1` (stereo not drawn), the IC50 was 500 nM.
With `O=C(NCCc1nc(-c2ccc(F)c(F)c2)n[nH]1)C1CCCCC1`, the IC50 is 1000 nM.
Regarding `CCCN(Cc1ccc(OC)c(OC)c1)Cc1cc(=O)c2c(C)cc(C)cc2[nH]1`, the IC50 is > 40000 nM (inactive).
To `COc1cccc(CN(C)Cc2nc(N)c3c(C)c(C)sc3n2)c1` belongs 4000 nM; to `Cc1cc(Nc2cc(C3CC3)[nH]n2)nc(N2CCC[C@H]2C(N)=O)n1`, 63 nM; to `CC(C)CC(=O)Nc1cc(C2CC2)nn1-c1nc2c(c(=O)[nH]1)CCCC2`, 200 nM.
As for `COc1ccc2nccc(NC(=O)C3(OC)CCN(CC(O)c4ccc5c(c4)OCCO5)CC3)c2n1` (stereo not drawn), the IC50 was 500 nM.
Turning to `CCC(=O)Nc1ccc(-c2nc3ccc(Cl)cc3[nH]2)cc1`, the IC50 was > 40000 nM (inactive).
`COc1ccc(NS(=O)(=O)c2cc(NC(=O)Cc3ccc(C)cc3)ccc2N2CCOCC2)cc1`: the IC50 was 7900 nM.
The figure for `CC(C)(C)CC(=O)NCCc1csc(-c2ccc(F)cc2)n1` is 500 nM; for `Cc1cc(-c2cccc3ccccc23)nc2nc(N)nc(N)c12` it is 20000 nM; for `COc1ccc2nccc([C@H](O)CN3CC[C@H](NC(=O)c4ccc(Br)cc4)[C@@H](O)C3)c2n1` it is 500 nM.
Consider `CCC(=O)N1N=C(c2ccc3c(c2)CCCC3)Sc2c1ncn2C(=O)CC`, for which the IC50 is 20000 nM.
Take `COc1ccc(OC)c2c(=O)c(Cc3ccccc3)c(C)[nH]c12`: the IC50 was > 40000 nM (inactive).
Regarding `Cc1ccc2ccc(C(Nc3ccccn3)c3cccnc3)c(O)c2n1` (stereo not drawn), the half-maximal inhibitory concentration (IC50) was 4000 nM.
Turning to `CN1CCC(N(C)c2nccc(N3CCN(C(=O)c4cccc(-c5cccnc5)c4)CC3)n2)CC1`, the IC50 was 1000 nM.
To `Nc1nc(-c2ccccn2)nc(N)c1Cc1c(F)cccc1Cl` belongs 2000 nM; to `CC(Cn1ccnc1)NC(=O)C1CC1c1cccc(Cl)c1Cl` (stereo not drawn), > 40000 nM (inactive); to `CC(=O)Nc1ccc(CN2CCC(N3CC(c4ccccc4)(c4ccccc4)OCC3=O)CC2)cc1`, 400 nM.
`CC(c1ccccn1)N(C)Cc1nc2ccccc2n1C(C)C` (stereo not drawn): the IC50 was 10000 nM.
For `CCN(CC)c1ccc(S(=O)(=O)N(CC)CC)c2nonc12`, the IC50 was 25000 nM.
To `COc1ccc(-c2cnc(C)o2)cc1S(=O)(=O)Nc1ccc(C)cc1C` belongs 32000 nM; to `COc1ccccc1-n1c(SCC(=O)Nc2ccc3c(c2)OCO3)nc2c(c1=O)SCC2`, > 40000 nM (inactive).
For the compound `Cc1nc(-c2nc(NCc3ccc(Cl)cc3)c3cccnc3c2O)n[nH]1`, the IC50 is 790 nM.
In the case of `CS(=O)(=O)N1CCC(Nc2ncc(Br)c(Nc3cccc(F)c3C(N)=O)n2)CC1`, the IC50 is 16 nM.
`Cc1cc(Nc2ccc(C#N)c(Cl)c2C)n[nH]1`: the IC50 was 250 nM.
Regarding `O=C(NCCNc1noc(-c2ccc([N+](=O)[O-])cc2)n1)c1ccc(Cl)cc1`, the IC50 is > 40000 nM (inactive).
To `Cc1cc(Oc2cc(Cl)c(Cl)cc2Cl)n2ncnc2n1` belongs 400 nM.
To `Cc1cc(N(C)C)nc(Nc2ccccc2C)n1` belongs > 40000 nM (inactive).
For the compound `O=C(CSc1ccc(-c2ccccn2)nn1)Nc1ccc(Cl)cc1`, the IC50 was > 40000 nM (inactive).
With `COc1cnc2ccc(=O)n(CCN3CCC(NC(=O)c4ccc(Cl)cc4)CC3)c2c1`, the IC50 is 100 nM.
Consider `Cc1ccc2c(c1)-c1onc(C(=O)N3CCCCC3c3cccnc3)c1CO2` (stereo not drawn), for which the IC50 was > 40000 nM (inactive).
For the compound `CNC(=O)C1Cc2ccccc2N1C(=O)Cc1ccccc1` (stereo not drawn), the IC50 was 1000 nM.
The figure for `Cc1ccc(NC(=O)c2ccc([N+](=O)[O-])s2)cc1S(=O)(=O)N1CCOCC1` is 790 nM; for `CNc1cncc(C2CCCN2C(=O)Cc2coc3cc(C)ccc23)n1` (stereo not drawn) it is > 40000 nM (inactive).
To `O=[N+]([O-])c1ccc(C2=CC(c3ccccc3)=NCCN2)cc1` belongs > 13000 nM (inactive); to `O=C(NCCCn1cnc2ccccc21)c1ccc(NC(=O)c2ccco2)cc1`, 250 nM; to `Cc1cc(C#N)c([N+](=O)[O-])cc1Br`, 4000 nM.
In the case of `COCc1cc(Nc2ccccc2)nc(-c2ccccn2)n1`, the IC50 was > 40000 nM (inactive).
Take `CC(C)(C)c1csc(NC(=O)c2ccc([N+](=O)[O-])s2)n1`: the IC50 was 1600 nM.
With `CS(=O)(=O)c1ccc(CC(=O)Nc2nc(-c3ccc(Cl)s3)cs2)cc1`, the IC50 is > 40000 nM (inactive).
For `COc1ccc(NS(=O)(=O)c2cc(-c3cc(C)[nH]n3)ccc2C)cc1OC`, the IC50 is 630 nM.
The figure for `O=C(Nc1ccc(Br)c(Cl)c1)Nc1ccc2c(c1)OCO2` is 13000 nM; for `CN(C)Cc1cccc(Nc2nccc(-c3ccc(NCCN)c(C#N)c3)n2)c1` it is 200 nM.
To `CCCN1CCN(Cc2ccc(S(=O)(=O)Nc3cccc(C)c3)cc2)CC1` belongs > 40000 nM (inactive); to `COc1ccc(-c2nc3ncccc3o2)cc1NC(=O)c1cccs1`, 2500 nM; to `CCCC(=O)N(Cc1ccccn1)c1nc2ccccc2s1`, > 40000 nM (inactive).
To `O=c1cc(NCCCNCc2cc(C(F)(F)F)cs2)[nH]c2ccccc12` belongs 400 nM; to `CN(C(=O)Nc1ccc2c(c1)CCN(C1CCC1)CC2)c1ccc(C#N)cc1`, 630 nM; to `COc1ccc2ncc(=O)n(CCN3CC[C@H](NCc4ncc(Cl)c5[nH]ncc45)[C@H](O)C3)c2n1`, 500 nM.
As for `O=[N+]([O-])c1ccc(-c2nnn(-c3ccc(Cl)cc3)n2)o1`, the IC50 is 1000 nM.
`O=C(Nc1nc2ccccc2[nH]1)c1c(O)c2cccc3c2n(c1=O)CC3`: the IC50 is 20000 nM.
On to `Cc1cn[nH]c1C1CCCN(Cc2nc3ccccc3n2C)C1` (stereo not drawn), for which the IC50 is 7900 nM.
`CN(C)CCOc1ccc(N2CCN(S(=O)(=O)c3ccc(Cl)cc3)CC2)cc1`: the IC50 was 25000 nM.
On to `O=S(=O)(c1ccccc1C(F)(F)F)N1CCN(Cc2ccc(-n3ccnc3)cc2)CC1`, for which the IC50 was > 40000 nM (inactive).
Turning to `N#Cc1ccc(C(=O)Nc2cccc(-c3cccc(CN4CCC(O)CC4)c3)c2)cc1`, the IC50 was 790 nM.
For the compound `CC(C)(C)C(Cn1ccnc1)NC(=O)c1ccc2nc(C3CC3)oc2c1` (stereo not drawn), the IC50 was > 40000 nM (inactive).
On to `O=C1COC(c2ccccc2)(c2ccccc2)CN1C1CCN(Cc2ccc(-n3ccnc3)cc2)CC1`, for which the IC50 was 1000 nM.
With `Cc1nn(-c2nc(N)nc(-c3ccccn3)n2)c(N)c1-c1ccccc1`, the IC50 is 6300 nM.
For `O=C(Nc1ccccc1C(=O)Nc1ccccn1)c1ccco1`, the IC50 is 500 nM.
Regarding `CCOc1ccc(CN(C)Cc2nc(N)nc(Nc3ccc(C)cc3)n2)cc1`, the IC50 is 2000 nM.
Regarding `Oc1c(-c2n[nH]c(CCc3ccccc3)n2)ncc2cccnc12`, the IC50 is 1600 nM.
As for `CNc1nc(C)nc(N2CCc3cc(C(=O)NCc4ccc(-c5nccn5C)cc4Cl)ccc32)n1`, the IC50 is 20000 nM.
Regarding `Clc1ccc(Sc2cnccc2N2CCOCC2)cc1`, the IC50 was > 40000 nM (inactive).
Regarding `CCCCCNC(=O)c1c[nH]c2ccc(S(=O)(=O)N(C)c3ccc(OCC)cc3)cc2c1=O`, the IC50 was 250 nM.
On to `CCN(CC)c1ncc(C(=O)c2ccc([N+](=O)[O-])o2)s1`, for which the IC50 is 400 nM.
Turning to `Clc1cc(Br)ccc1OCCCCn1ccnc1`, the IC50 is 20000 nM.
Take `CCNc1cc(-c2ccccn2)nc(Nc2ccc(OC)cc2)n1`: the IC50 was 10000 nM.
For `O=C(NCCc1ccn(-c2ccccc2)n1)C1CCCCC1`, the IC50 was 320 nM.
With `COc1cc(F)c2ncc(F)c(CCN3CC[C@H](NCc4cc5c(cn4)OCS5)[C@@H](O)C3)c2c1`, the IC50 was 500 nM.
